# From patent US9023853B2, “Janus kinase 2 (JAK2) inhibitor for the treatment of lupus” (Cephalon, Inc., priority 2010, dated 2015)
# Legend:
# Format in all cases: in vivo, mouse
# KC/IL-8 = assay: Serum KC/IL-8 in NZM mice
# Description: (§1) For the processing of serum samples for cytokine analysis, frozen plasma at −80° C. was thawed on ice, vortexed, and centrifuged for 10 minutes to remove debris and aggregates. A total of 25-50 μL of serum was used for Luminex® assays following the manufacturer's instructions. Ten different mouse cytokines were measured using the mouse cytokine 10-plex bead kit (Invitrogen, Carlsbad, Calif., no. LMC0001). Briefly, filter plates (Millipore, Billerica, Mass., no. MAIPSWU10), were pre-wet with 200 μL of wash solution (kit component) and 25 μL of beads were added per well. […]
# (§2) Age mated, female, NZM or NZW/LacJ, mice were matured for the study of lupus nephritis for a total of 7 months or 210 days at which time urine was collected for proteinuria detection. Mice with 0.5-1.0 mg/ml of urine protein as determined by an optical density-based total protein precipitation assay and cross-checked for 30-300 mg/dl of protein as determined by a stick assay were considered proteinuria positive and selected for study entry. […] End-stage lupus nephritis was evaluated by histopathology and scored by a board certified pathologist for the assessment of total renal damage in diseased animals using the scoring method described by Smith et al (Smith, Dong et al. 2007). […]
# CD38 = CD38 expression by flow cytometry in NZM mice
# Description: Antibodies used for flow cytometry consisted of anti-mouse CD138-APC (eBioscience, San Diego, Calif.), anti-mouse CD19-FITC (eBioscience, San Diego, Calif.), anti-mouse CD38-PE (eBioscience, San Diego, Calif.) and anti-mouse CD45R/B220-Cyc (eBioscience, San Diego, Calif.), Rat IgG1-APC isotype control (eBioscience, San Diego, Calif.), Rat IgG2a-PE isotype control (eBioscience, San Diego, Calif.). All samples were analyzed using an Accuri C6 Flow Cytometer. Complete media was used for all experiments involving the ex vivo culture of splenocytes for all Elispot experiments. […]
# as §2
# IL-6 = assay: Serum IL-6 in NZM mice
# Description: as §1, §2
# CXCL9/MIG = assay: Serum CXCL9/MIG in NZM mice
# Description: as §1, §2
structure (smiles),measurement,setting,value
"CN1CCN(c2cccc(Nc3nc4c(-c5ccc(S(C)(=O)=O)cc5)cccn4n3)c2)CC1 [COMPOUND A, [8-(4-methanesulfonyl-phenyl)-[1,2,4]triazolo[1,5-a]pyridin-2-yl]-[3-(4-methyl-piperazin-1-yl)-phenyl]-amine]",serum KC/IL-8 decrease compared to vehicle,KC/IL-8; 55 mg/kg,78.0%
same,serum KC/IL-8 decrease compared to vehicle,KC/IL-8; 100 mg/kg,72.9%
same,decrease in expression of CD38,CD38; COMPOUND A 55 mg/kg,66.6%
same,decrease in expression of CD38,CD38; COMPOUND A 100 mg/kg,74.2%
same,serum IL-6 decrease compared to vehicle,IL-6; 55 mg/kg,98.2%
same,serum IL-6 decrease compared to vehicle,IL-6; 100 mg/kg,97.0%
same,serum CXCL9/MIG decrease compared to vehicle,CXCL9/MIG; 55 mg/kg,83.7%
same,serum CXCL9/MIG decrease compared to vehicle,CXCL9/MIG; 100 mg/kg,85.7%
